Measurements published in the supplement of paper PMC10307832.

How the values were obtained:
Experiment in all cases: relative viability (nuclei count vs DMSO), 5 days (fraction); higher = more cells survive
[1] = compound: C[C@]1(O)C[C@@H](c2nc(-c3ccc4ccc(-c5ccccc5)nc4c3)c3c(N)nccn32)C1 [Linsitinib] + N=C(N)NC(=N)NCCc1ccccc1 [Phenformin] (partner 250 µM)
Procedure, shortened: (§1)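 Nuclei were stained with Hoechst during a one-step fixation (final 0.05% Triton X-100, 1% formaldehyde, 1 ug/ml Hoechst) carried out 5 days after dosing, then counted on 4× images. The cells, lung cancer lines in 1536-well plates, had been dosed by pin tool the day after seeding with one drug alone or a fixed anchor-drug dose plus five library-drug doses (not always all listed) in √10 steps. Relative viability is the nuclei count in treated wells divided by that in vehicle wells, and each value is the median of duplicate plates.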

[2] = compound: Cc1ccc(C(=O)N(CCCN)[C@@H](c2nc3cc(Cl)ccc3c(=O)n2Cc2ccccc2)C(C)C)cc1 [Ispinesib] + O=C(c1cc(Cc2n[nH]c(=O)c3ccccc23)ccc1F)N1CCN(C(=O)C2CC2)CC1 [Olaparib] (partner 8 µM)
Procedure, shortened: as §1

[3] = compound: Cc1ccc(C(=O)N(CCCN)[C@@H](c2nc3cc(Cl)ccc3c(=O)n2Cc2ccccc2)C(C)C)cc1 [Ispinesib] + Nc1ncn([C@H]2C[C@H](O)[C@@H](CO)O2)c(=O)n1 [Decitabine] (partner 2 µM)
Procedure, shortened: as §1

[4] = compound: Cc1ccc(C(=O)N(CCCN)[C@@H](c2nc3cc(Cl)ccc3c(=O)n2Cc2ccccc2)C(C)C)cc1 [Ispinesib] + CCNC(=O)c1noc(-c2cc(C(C)C)c(O)cc2O)c1-c1ccc(CN2CCOCC2)cc1 [Luminespib] (partner 0.01 µM)
Procedure, shortened: as §1

Cell Line | relative viability ([1]; first compound 0.01 µM) | relative viability ([1]; first compound 0.03162 µM) | relative viability ([1]; first compound 0.1 µM) | relative viability ([1]; first compound 0.3162 µM) | relative viability ([1]; first compound 1 µM) | relative viability ([2]; first compound 0.001 µM) | relative viability ([2]; first compound 0.003162 µM) | relative viability ([2]; first compound 0.01 µM) | relative viability ([2]; first compound 0.03162 µM) | relative viability ([2]; first compound 0.1 µM) | relative viability ([3]; first compound 0.001 µM) | relative viability ([3]; first compound 0.003162 µM) | relative viability ([3]; first compound 0.01 µM) | relative viability ([3]; first compound 0.03162 µM) | relative viability ([3]; first compound 0.1 µM) | relative viability ([4]; first compound 0.001 µM) | relative viability ([4]; first compound 0.003162 µM) | relative viability ([4]; first compound 0.01 µM) | relative viability ([4]; first compound 0.03162 µM) | relative viability ([4]; first compound 0.1 µM)
HCC-366 | 0.612 | 0.604 | 0.598 | 0.574 | 0.377 | 0.355 | 0.434 | 0.372 | 0.476 | 0.0931 | 0.377 | 0.426 | 0.396 | 0.399 | 0.0716 | – | – | – | – | –
HCC-827 | 0.423 | 0.433 | 0.418 | – | 0.385 | 0.652 | 0.672 | 0.67 | 0.686 | 0.601 | 0.303 | 0.373 | 0.32 | 0.294 | 0.234 | 0.69 | 0.536 | 0.876 | 0.482 | 0.529
HOP-62 | 0.663 | 0.718 | 0.677 | – | 0.61 | 0.62 | 0.215 | 0.341 | 0.312 | 0.186 | 0.22 | 0.191 | 0.226 | 0.224 | 0.23 | 0.899 | 1.02 | 0.93 | 0.794 | 0.814
IA-LM | – | – | – | – | – | 0.916 | 0.938 | 1.15 | 1.02 | 0.155 | – | – | – | – | – | – | – | – | – | –
LC-2-ad | 0.606 | 0.572 | 0.558 | 0.332 | 0.353 | 0.728 | 0.728 | 0.711 | 0.816 | 0.293 | 0.847 | 0.787 | 0.872 | 0.815 | 0.54 | 1.08 | 1.3 | 1.05 | 0.915 | 0.396
LCLC-97TM1 | 0.41 | 0.432 | 0.43 | 0.194 | 0.205 | 0.396 | 0.544 | 0.406 | 0.318 | 0.216 | 0.248 | 0.24 | 0.303 | 0.235 | 0.19 | 0.781 | 0.765 | 0.886 | 0.807 | 0.487
LCLC-103H | 0.397 | 0.344 | 0.324 | 0.327 | 0.303 | 0.8 | 0.888 | 0.856 | 0.746 | 0.775 | 0.757 | 0.741 | 0.739 | 0.68 | 0.6 | 0.95 | 1.08 | 1.08 | 0.752 | 0.785
LK-2 | 0.41 | 0.498 | 0.515 | 0.201 | 0.187 | 0.795 | 0.814 | 0.698 | 0.632 | 0.329 | 0.253 | 0.419 | 0.36 | 0.216 | 0.153 | 0.186 | 0.174 | 0.226 | 0.224 | 0.202
LOU-NH91 | 0.739 | 0.714 | 0.722 | 0.651 | 0.632 | 0.929 | 0.915 | 0.969 | 0.906 | 0.369 | 0.795 | 0.852 | 0.858 | 0.786 | 0.342 | 0.332 | 0.311 | 0.394 | 0.25 | 0.297
